Test results as given in patent US20090029949A1, “GPCR Ligands Identified by Computational Modeling” (priority 2006, published 2009).

Key:
WT S1P1 [1] = target: T1, WT S1P1 (Homo sapiens, UniProt P21453); details: WT receptor, inventors' system (ref 28); read-out: apparent KD for S1P binding; cited from earlier work
S1P1 mutant L5.51E = target: T2, S1P1 mutant L5.51E (Homo sapiens, UniProt P21453, L213E); experiment: [35S]GTPγS binding, S1P1 L5.51E; type: biochemical; details: S1P-induced, S1P1 L5.51E in RH7777 cells
T2 construct: expressed in transfected cells; host or cells: RH7777 (transient, pcDNA3.1)
T2 sequence (P21453 whole entry L213E): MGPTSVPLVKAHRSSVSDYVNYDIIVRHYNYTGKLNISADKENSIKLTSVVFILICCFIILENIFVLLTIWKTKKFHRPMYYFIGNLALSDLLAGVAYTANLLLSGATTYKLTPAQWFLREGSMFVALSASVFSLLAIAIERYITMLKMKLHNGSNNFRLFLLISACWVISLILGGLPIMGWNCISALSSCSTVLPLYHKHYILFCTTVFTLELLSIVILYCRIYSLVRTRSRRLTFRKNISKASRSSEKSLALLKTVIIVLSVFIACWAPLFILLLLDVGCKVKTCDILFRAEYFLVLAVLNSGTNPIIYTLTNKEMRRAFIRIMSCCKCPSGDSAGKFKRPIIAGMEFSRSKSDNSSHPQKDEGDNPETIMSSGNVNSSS
Protocol: (§1) RH7777 and HEK-293 cells (ATCC, Manassas, Va.) were maintained in Dulbecco's modified minimal essential medium (DMEM) containing 10% fetal bovine serum (Hyclone, Logan, Utah). Cells (2×10^6) were transfected with 2 μg of plasmid DNA with Effectene (Qiagen, Valencia, Calif.) according to the manufacturer's instructions, for 24 h. Before ligand binding and receptor activation assays, the cells were washed twice with serum-free DMEM and serum-starved for at least 6 h.
(§2) S1P1 Receptor Activation Assays Receptor functional assays were performed in transiently transfected RH7777 cells by measuring S1P-activated [^35S]GTPγS binding as previously described (28).

S1P1 mutant F5.48G = target: T3, S1P1 mutant F5.48G (Homo sapiens, UniProt P21453, F210G); experiment: [32P]S1P competition binding, HEK-293 cells, F5.48G; details: S1P1 F5.48G
T3 construct: expressed in transfected cells
T3 sequence (P21453 whole entry F210G): as the sequence (P21453 whole entry L213E) above, with F210G, E213L counted along it
Protocol: For the competition assays, HEK-293 cells were used. Briefly, 4×10^5 cells were plated in 24-well dishes and allowed to adhere overnight. The cells were then transfected with 0.4 μg of the cDNA using Lipofectamine 2000 (Invitrogen) and the transfection proceeded for 48 h. After washing the cells twice with ice-cold binding buffer (20 mM Tris-HCl, pH 7.4 and 150 mM NaCl), 0.1 nM [^32P]S1P and competing concentrations of cold S1P (1 nM-10 μM), resuspended in binding buffer+4% BSA, were applied to the cells and incubated on ice for 30 min. After washing the cells twice with ice-cold binding buffer+0.4% BSA, the cells were lysed with 0.5% SDS and equilibrated in scintillation fluid. The samples were measured in triplicate.

S1P1 mutant F6.44G = target: T4, S1P1 mutant F6.44G (Homo sapiens, UniProt P21453, F265G); experiment: [35S]GTPγS binding, S1P1 F6.44G; type: biochemical; details: S1P-induced, S1P1 F6.44G in RH7777 cells
T4 construct: expressed in transfected cells; host or cells: RH7777
T4 sequence (P21453 whole entry F265G): as the sequence (P21453 whole entry L213E) above, with E213L, F265G counted along it
Protocol: as §1, §2

S1P1 mutant V5.47L = target: T5, S1P1 mutant V5.47L (Homo sapiens, UniProt P21453, V209L); experiment: [35S]GTPγS binding, S1P1 V5.47L; type: biochemical; details: S1P-induced, S1P1 V5.47L in RH7777 cells
T5 construct: expressed in transfected cells; host or cells: RH7777
T5 sequence (P21453 whole entry V209L): as the sequence (P21453 whole entry L213E) above, with V209L, E213L counted along it
Protocol: as §1, §2

S1P1 mutant L5.51G = target: T6, S1P1 mutant L5.51G (Homo sapiens, UniProt P21453, L213G); experiment: [35S]GTPγS binding, S1P1 L5.51G; type: biochemical; details: S1P-induced, S1P1 L5.51G in RH7777 cells
T6 construct: expressed in transfected cells; host or cells: RH7777 (transient, pcDNA3.1)
T6 sequence (P21453 whole entry L213G): as the sequence (P21453 whole entry L213E) above, with E213G counted along it
Protocol: as §1, §2

S1P1 mutant W6.48A = target: T7, S1P1 mutant W6.48A (Homo sapiens, UniProt P21453, W269A); experiment: [32P]S1P radioligand binding, RH7777 cells, W6.48A; details: radioligand 50 nM, S1P1 W6.48A
T7 construct: expressed in transfected cells
T7 sequence (P21453 whole entry W269A): as the sequence (P21453 whole entry L213E) above, with E213L, W269A counted along it
Protocol: as §1
The S1P binding assays were done essentially as previously described (28). Transfected RH7777 cells (5×10^5) were incubated at 4° C. in 20 mM Tris-HCl (pH 7.5) binding buffer containing 100 mM NaCl, 15 mM NaF, protease inhibitor cocktail (Sigma-Aldrich), and 0.2 mg/ml essentially fatty-acid free BSA with 1 nM [^32P]S1P in 50 nM S1P for 40 min. Cells were centrifuged and washed twice in binding buffer. The final pellet was resuspended in 2:1 CHCl3/MeOH and the suspension was equilibrated in scintillation fluid overnight. Cell-bound radioactivity was measured by liquid scintillation counting using a Beckman LS5000 TA counter (Beckman Coulter, Irvine, Calif.). Specific binding was defined as the difference between total binding and non-specific binding (in the presence of 2-5 μM cold S1P). Standard errors were computed on the basis of triplicate samples from two simultaneous transfections.

S1P1 mutant V6.40A = S1P1 mutant V6.40A (Homo sapiens, UniProt P21453, V261A); experiment: [35S]GTPγS binding, S1P1 V6.40A; type: biochemical; design: expressed in transfected cells; host or cells: RH7777 (GTPγS); details: S1P-induced, S1P1 V6.40A in RH7777 cells
Sequence of S1P1 mutant V6.40A (P21453 whole entry V261A): as the sequence (P21453 whole entry L213E) above, with E213L, V261A counted along it
Protocol: as §1, §2

S1P1 mutant F5.48Y = target: T8, S1P1 mutant F5.48Y (Homo sapiens, UniProt P21453, F210Y); experiment: [35S]GTPγS binding, S1P1 F5.48Y; type: biochemical; details: S1P-induced, S1P1 F5.48Y in RH7777 cells
T8 construct: expressed in transfected cells; host or cells: RH7777
T8 sequence (P21453 whole entry F210Y): as the sequence (P21453 whole entry L213E) above, with F210Y, E213L counted along it
Protocol: as §1, §2

S1P1 mutant M3.32G = target: T9, S1P1 mutant M3.32G (Homo sapiens, UniProt P21453, M124G); experiment: [35S]GTPγS binding, S1P1 M3.32G; type: biochemical; details: S1P-induced, S1P1 M3.32G in RH7777 cells
T9 construct: expressed in transfected cells; host or cells: RH7777
T9 sequence (P21453 whole entry M124G): as the sequence (P21453 whole entry L213E) above, with M124G, E213L counted along it
Protocol: as §1, §2

[2] = Ligand-induced [35S]GTPγS binding, empty vector; type: biochemical; details: S1P-induced, empty vector in RH7777 cells
Protocol: as §1, §2

WT S1P1 [3] = target: T1, WT S1P1; experiment: Ligand-induced [35S]GTPγS binding, WT S1P1; type: biochemical; design: expressed in transfected cells; host or cells: RH7777 (transient, pcDNA3.1); details: S1P-induced, WT-S1P1 in RH7777 cells
Protocol: as §1, §2

S1P1 mutant T5.49G = target: T10, S1P1 mutant T5.49G (Homo sapiens, UniProt P21453, T211G); experiment: [35S]GTPγS binding, S1P1 T5.49G; type: biochemical; details: S1P-induced, S1P1 T5.49G in RH7777 cells
T10 construct: expressed in transfected cells; host or cells: RH7777 (transient, pcDNA3.1)
T10 sequence (P21453 whole entry T211G): as the sequence (P21453 whole entry L213E) above, with T211G, E213L counted along it
Protocol: as §1, §2

S1P1 mutant V3.40L = target: T11, S1P1 mutant V3.40L (Homo sapiens, UniProt P21453, V132L); experiment: [35S]GTPγS binding, S1P1 V3.40L; type: biochemical; details: S1P-induced, S1P1 V3.40L in RH7777 cells
T11 construct: expressed in transfected cells; host or cells: RH7777 (transient, pcDNA3.1)
T11 sequence (P21453 whole entry V132L): as the sequence (P21453 whole entry L213E) above, with V132L, E213L counted along it
Protocol: as §1, §2

S1P1 mutant T5.49S = target: T12, S1P1 mutant T5.49S (Homo sapiens, UniProt P21453, T211S); experiment: [35S]GTPγS binding, S1P1 T5.49S; type: biochemical; details: S1P-induced, S1P1 T5.49S in RH7777 cells
T12 construct: expressed in transfected cells; host or cells: RH7777 (transient, pcDNA3.1)
T12 sequence (P21453 whole entry T211S): as the sequence (P21453 whole entry L213E) above, with T211S, E213L counted along it
Protocol: as §1, §2

S1P1 mutant I5.41A = target: T13, S1P1 mutant I5.41A (Homo sapiens, UniProt P21453, I203A); experiment: [35S]GTPγS binding, S1P1 I5.41A; type: biochemical; details: S1P-induced, S1P1 I5.41A in RH7777 cells
T13 construct: expressed in transfected cells; host or cells: RH7777 (transient, pcDNA3.1)
T13 sequence (P21453 whole entry I203A): as the sequence (P21453 whole entry L213E) above, with I203A, E213L counted along it
Protocol: as §1, §2

T1 sequence (P21453 whole entry): as the sequence (P21453 whole entry L213E) above, with E213L counted along it

In the case of `CCCCCCCCCCCCC/C=C/[C@@H](O)[C@@H](N)COP(=O)(O)O` [S1P, Sphingosine 1-phosphate], the Kd (WT S1P1 [1]) is given as 36 ± 2 nM, the “% WT Emax + s.d.” value (S1P1 mutant L5.51E) is given as “∞” and the “EC50 + s.d.” value (S1P1 mutant L5.51E) is given as “∞”. For the same compound, the Bmax (S1P1 mutant F5.48G) was 2580 fmol, the Kd (S1P1 mutant F5.48G; competition with cold S1P, read-out: KD + s.d.) was 20.2 nM and the “% WT Emax + s.d.” value (S1P1 mutant F6.44G) was “∞”. For the same compound, the “EC50 + s.d.” value (S1P1 mutant F6.44G) was “∞”, the “% WT Emax + s.d.” value (S1P1 mutant V5.47L) was “∞” and the “EC50 + s.d.” value (S1P1 mutant V5.47L) was “∞”. The EC50 (S1P1 mutant L5.51G) was 2.6 ± 2.1 nM, the Emax (S1P1 mutant L5.51G; read-out: % WT Emax + s.d.) was 46% and the “[32P]S1P binding relative to WT” value (S1P1 mutant W6.48A) was > 50 % of the WT. The EC50 (S1P1 mutant V6.40A) was 14.8 nM, the Emax (S1P1 mutant V6.40A; read-out: % WT Emax + s.d.) was 69% and the “% WT Emax + s.d.” value (S1P1 mutant F5.48Y) was “∞”. The “EC50 + s.d.” value (S1P1 mutant F5.48Y) was “∞”, the EC50 (S1P1 mutant M3.32G) was 35 ± 5 nM and the Emax (S1P1 mutant M3.32G; read-out: % WT Emax + s.d.) was 77%. The “% WT Emax + s.d.” value [2] was “∞”, the “EC50 + s.d.” value [2] was “∞” and the “% WT Emax + s.d.” value (WT S1P1 [3]) was 100 + 9.13 % WT. It also gave an EC50 (WT S1P1 [3]) of 1.4 ± 0.7 nM, an EC50 (S1P1 mutant T5.49G) of 5.4 nM and an Emax (S1P1 mutant T5.49G; read-out: % WT Emax + s.d.) of 107%. For the same compound, the EC50 (S1P1 mutant V3.40L) was 7 ± 4.5 nM, the Emax (S1P1 mutant V3.40L; read-out: % WT Emax + s.d.) was 55% and the EC50 (S1P1 mutant T5.49S) was 6.6 nM. It also gave an Emax (S1P1 mutant T5.49S; read-out: % WT Emax + s.d.) of 168%, an EC50 (S1P1 mutant I5.41A) of 157 nM and an Emax (S1P1 mutant I5.41A; read-out: % WT Emax + s.d.) of 26%.
